Molecules are shown by their SMILES. Structures can show the parent of a compound that is named as a salt.

We go through 29 molecules from patent US7863271B2, “2-aminobenzoxazole carboxamides as 5HT3 modulators” (Albany Molecular Research, Inc., priority 2006, dated 2011).

The test deals with T1, 5-HT3 (Homo sapiens, UniProt P46098).
T1 sequence (P46098 24-478): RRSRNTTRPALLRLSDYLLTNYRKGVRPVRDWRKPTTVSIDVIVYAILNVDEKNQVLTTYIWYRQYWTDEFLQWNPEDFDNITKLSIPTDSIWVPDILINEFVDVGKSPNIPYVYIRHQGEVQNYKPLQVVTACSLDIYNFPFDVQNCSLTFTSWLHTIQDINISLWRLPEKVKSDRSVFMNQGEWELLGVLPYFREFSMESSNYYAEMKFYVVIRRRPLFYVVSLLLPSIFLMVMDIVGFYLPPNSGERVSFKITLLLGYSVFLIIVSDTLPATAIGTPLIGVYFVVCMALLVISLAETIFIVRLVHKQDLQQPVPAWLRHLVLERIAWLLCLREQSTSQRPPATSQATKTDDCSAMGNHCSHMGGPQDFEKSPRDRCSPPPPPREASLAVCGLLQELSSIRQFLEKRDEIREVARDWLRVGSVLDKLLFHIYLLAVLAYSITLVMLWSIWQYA
Put plainly: Compound affinity for the human 5-HT3 receptor (Assay B), SPA radioligand binding with [9-methyl-3H]BRL-43694. The conditions noted are these: Assay B (method B unless otherwise annotated); read-out: 5-HT3 Ki. The arrangement: purchased Perkin Elmer. In outline:
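Ten competitor concentrations in duplicate; specific binding (total minus nonspecific) fitted for IC50, converted to Ki by Cheng-Prusoff.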

Consider `CC(C)OC(=O)N1C[C@H](C)N(c2nc3c(C(=O)NC4CC5CCCC(C4)N5C)cccc3o2)[C@@H](C)C1` (stereo partly drawn) [Example 143, Endo-N-(9-methyl-9-azabicyclo[3.3.1]nonan-3-yl)-2-((2S,6S)-4-(isopropoxycarbonyl)-2,6-dimethylpiperazin-1-yl)benzoxazole-4-carboxamide Hydrochloride], for which the inhibition constant (Ki) came out at 1.4 nM.

As to `CN1[C@@H]2CCC[C@H]1C[C@@H](NC(=O)c1cccc3oc(N4CCS(=O)(=O)CC4)nc13)C2` [Example 82, Endo-N-(9-Methyl-9-azabicyclo[3.3.1]nonan-3-yl)-2-(thiomorpholine 1,1-dioxide)benzoxazole-4-carboxamide Hydrochloride], the Ki worked out at 132 nM.

Turning to `CN1[C@@H]2CCC[C@H]1C[C@@H](NC(=O)c1cccc3oc(N4CCNCC4)nc13)C2` [Example 21, Endo-N-(9-Methyl-9-azabicyclo[3.3.1]non-3-yl)-2-(piperazin-1-yl)benzoxazole-4-carboxamide Dihydrochloride], the Ki worked out at 74.6 nM.

`C[C@H]1CN(C)C(=O)[C@H](C)N1c1nc2c(C(=O)NC3CC4CCCC(C3)N4C)cccc2o1` (stereo partly drawn) [Example 120, Endo-N-(9-methyl-9-azabicyclo[3.3.1]nonan-3-yl)-2-((2S,6S)-2,4,6-trimethyl-3-oxopiperazine-1-yl)benzoxazole-4-carboxamide Hydrochloride]: the Ki was determined as 1.9 nM.

Consider `CN(C)c1nc2c(C(=O)N[C@H]3C[C@H]4COC[C@@H](C3)N4C)cccc2o1` [Example 30, Endo-N-(9-methyl-3-oxa-9-azabicyclo[3.3.1]non-7-yl)-2-(dimethylamino)benzoxazole-4-carboxamide Hydrochloride], for which the Ki was determined as 79 nM.

As for `CC[C@@H]1COCCN1c1nc2c(C(=O)NC3CC4CCCC(C3)N4C)cccc2o1` (stereo partly drawn) [Example 151, Endo-N-(9-Methyl-9-azabicyclo[3.3.1]nonan-3-yl)-2-((R)-3-ethylmorpholino)-benzoxazole-4-carboxamide Hydrochloride], the Ki amounted to 34 nM.

For `CN1[C@@H]2CCC[C@H]1C[C@@H](NC(=O)c1cccc3oc(=O)[nH]c13)C2` [Example 56, Endo-N-(9-Methyl-9-azabicyclo[3.3.1]nonan-3-yl)-2-oxo-2,3-dihydrobenzoxazole-4-carboxamide Hydrochloride], the Ki amounted to 72 nM.

Consider `COC1CCN(c2nc3c(C(=O)N[C@H]4C[C@H]5CCC[C@@H](C4)N5C)cccc3o2)CC1` [Example 89, Endo-N-(9-Methyl-9-azabicyclo[3.3.1]nonan-3-yl)-2-(4-methoxypiperidin-1-yl)benzoxazole-4-carboxamide Hydrochloride], for which the inhibition constant (Ki) is 36.9 nM.

Regarding `C[C@H]1CN(C)C(=O)[C@H](C)N1c1nc2c(C(=O)NC3CN4CCC3CC4)cccc2o1` (stereo partly drawn) [Example 124, N-(Quinuclidine-8-yl)-2-((2S,6S)-2,4,6-trimethyl-3-oxopiperazine-1-yl)benzoxazole-4-carboxamide Hydrochloride], the Ki amounted to 17.7 nM.

Consider `CN1[C@@H]2CCC[C@H]1C[C@@H](NC(=O)c1cccc3oc(=S)[nH]c13)C2` [Example 72, Endo N-(9-methyl-9-azabicyclo[3.3.1]nonan-3-yl)-2-thioxo-2,3-dihydrobenzoxazole-4-carboxamide Hydrochloride], for which the Ki is 30.8 nM.

`C[C@H]1COC[C@H](C)N1c1nc2c(C(=O)N[C@@H]3CN4CCC3CC4)cccc2o1` [Example 90, (S)—N-(quinuclidine-8-yl)-2-((3S,5S)-3,5-Dimethylmorpholino)benzoxazole-4-carboxamide Hydrochloride]: the Ki is 6.8 nM.

For `O=C(NC1CN2CCC1CC2)c1cccc2oc(N3CCOCC3c3ccccc3)nc12` [Example 20, (S)—N-(quinuclidine-8-yl)-2-(3-phenylmorpholino)benzoxazole-4-carboxamide Hydrochloride], the Ki was 34.4 nM.

For the molecule `CC1CNCCN1c1nc2c(C(=O)N[C@H]3C[C@H]4CCC[C@@H](C3)N4C)cccc2o1` (stereo partly drawn) [Example 25, Endo-N-(9-Methyl-9-azabicyclo[3.3.1]non-3-yl)-2-(2-methylpiperazin-1-yl)benzoxazole-4-carboxamide Dihydrochloride], the inhibitory constant (Ki) turned out to be 27.5 nM.

With `CC1CN(C(=O)N2CCCC2)CC(C)N1c1nc2c(C(=O)NC3CC4CCCC(C3)N4)cccc2o1` [Example 146, Endo-N-(9-azabicyclo[3.3.1]nonan-3-yl)-2-((2S,6S)-2,6-dimethyl-4-(pyrrolidine-1-carbonyl)piperazin-1-yl)benzoxazole-4-carboxamide hydrochloride], the Ki worked out at 32.2 nM.

As to `CCN(CC)c1nc2c(C(=O)N[C@@H]3CN4CCC3CC4)cccc2o1` [Example 115, (S)—N-(quinuclidine-8-yl)-2-diethylaminobenzoxazole-4-carboxamide Hydrochloride], the Ki came to 4.8 nM.

For `CN1[C@@H]2CCC[C@H]1C[C@@H](NC(=O)c1cccc3oc(N4CCOCC4c4ccccc4)nc13)C2` (mixture of isomers) [Example 19, Endo-N-(9-Methyl-9-azabicyclo[3.3.1]non-3-yl)-2-(3-phenylmorpholino)benzoxazole-4-carboxamide Hydrochloride], the Ki worked out at 17 nM.

In the case of `C[C@H]1C(=O)NCCN1c1nc2c(C(=O)NC3CC4CCCC(C3)N4C)cccc2o1` (stereo partly drawn) [Example 98, Endo-N-(9-Methyl-9-azabicyclo[3.3.1]nonan-3-yl)-2-((S)-2-methyl-3-oxopiperazine-1-yl)benzoxazole-4-carboxamide Hydrochloride], the Ki was 14.6 nM.

`C[C@H]1CN(Cc2ccccc2)C(=O)[C@H](C)N1c1nc2c(C(=O)NC3CC4CCCC(C3)N4C)cccc2o1` (stereo partly drawn) [Example 97, Endo-N-(9-Methyl-9-azabicyclo[3.3.1]nonan-3-yl)-2-((2S,6S)-4-benzyl-2,6-dimethyl-3-oxopiperazine-1-yl)benzoxazole-4-carboxamide Hydrochloride]: the inhibitory constant (Ki) was found to be 0.4 nM.

Regarding `CCC(=O)N1C[C@H](C)N(c2nc3c(C(=O)NC4CC5CCCC(C4)N5C)cccc3o2)[C@@H](C)C1` (stereo partly drawn) [Example 134, Endo-N-(9-methyl-9-azabicyclo[3.3.1]nonan-3-yl)-2-((2S,6S)-2,6-dimethyl-4-propionylpiperazin-1-yl)benzoxazole-4-carboxamide Hydrochloride], the Ki amounted to 1.7 nM.

Turning to `COc1ccc(Nc2nc3c(C(=O)N[C@H]4C[C@H]5CCC[C@@H](C4)N5C)cccc3o2)cc1` [Example 59, Endo-N-(9-methyl-9-azabicyclo[3.3.1]nonan-3-yl)-2-(4-methoxyphenylamino)benzoxazole-4-carboxamide Hydrochloride], the inhibition constant Ki was 7.6 nM.

Consider `C[C@H]1CNC[C@H](C)N1c1nc2c(C(=O)NC3CN4CCC3CC4)cccc2o1` (some centres unmarked) [Example 99, Hydrochloride], for which the inhibitory constant (Ki) stood at 13.2 nM.

As to `CC[C@H]1COC[C@H](C)N1c1nc2c(C(=O)NC3CC4CCCC(C3)N4C)cccc2o1` (stereo partly drawn) [Example 87, Endo-N-(9-Methyl-9-azabicyclo[3.3.1]nonan-3-yl)-2-((3 S,5S)-3-ethyl-5-methylmorpholino)benzoxazole-4-carboxamide Hydrochloride], the inhibition constant (Ki) came to 1 nM.

`CC1CN(c2nc3c(C(=O)N[C@H]4C[C@H]5CCC[C@@H](C4)N5C)cccc3o2)CCN1` (stereo partly drawn) [Example 95, Endo-N-(9-Methyl-9-azabicyclo[3.3.1]nonan-3-yl)-2-(3-methylpiperazin-1-yl)benzoxazole-4-carboxamide Hydrochloride]: the Ki was found to be 52.4 nM.

Consider `C[C@H]1CNC[C@H](C)N1c1nc2c(C(=O)NC3CC4CCCC(C3)N4C)cccc2o1` (stereo partly drawn) [Example 73, Endo-N-(9-Methyl-9-azabicyclo[3.3.1]nonan-3-yl)-2-((2S,6S)-2,6-dimethylpiperazin-1-yl)benzoxazole-4-carboxamide Hydrochloride], for which the Ki stood at 2.2 nM.

Take `O=C(N[C@@H]1CN2CCC1CC2)c1cccc2oc(Nc3ccncc3)nc12` [Example 28, (S)—N-(quinuclidine-8-yl)-2-(pyridin-4-ylamino)benzoxazole-4-carboxamide Dihydrochloride]: the Ki was 5.3 nM.

Consider `CN1[C@@H]2CCC[C@H]1C[C@@H](NC(=O)c1cccc3oc(N4CCC5(CC4)OCCO5)nc13)C2` [Example 91, Endo-N-(9-Methyl-9-azabicyclo[3.3.1]nonan-3-yl)-2-(1,4-dioxa-8-azaspiro[4.5]decan-8-yl)benzoxazole-4-carboxamide Hydrochloride], for which the inhibition constant (Ki) is 14.5 nM.

On to `CN1CCN(c2nc3c(C(=O)N[C@@H]4CN5CCC4CC5)cccc3o2)CC1` [Example 2, (S)—N-(quinuclidine-8-yl)-2-(4-methylpiperazin-1-yl)benzoxazole-4-carboxamide Dihydrochloride], for which the Ki was determined as 382 nM.

For the molecule `CN1CCN(c2nc3c(C(=O)NC4CN5CCC4CC5)cccc3o2)C(c2ccccc2)C1` (racemic) [Example 24, (S)—N-(quinuclidine-8-yl)-2-(4-methyl-2-phenylpiperazin-1-yl)benzoxazole-4-carboxamide Dihydrochloride], the Ki amounted to 103 nM.

Turning to `C[C@H]1CNC[C@H](C)N1c1nc2c(C(=O)NC3CC4CCCC(C3)N4C)cc(Cl)cc2o1` (stereo partly drawn) [Example 114, Endo-N-(9-methyl-9-azabicyclo[3.3.1]nonan-3-yl)-6-chloro-2-((2S,6S)-2,6-dimethylpiperazin-1-yl)benzoxazole-4-carboxamide Hydrochloride], the inhibition constant Ki turned out to be 6.6 nM.
